Experimental data published in ChEMBL document CHEMBL3045115, “Synthesis and antimycobacterial activity of novel 4-[5-(substituted phenyl)-1-phenyl-4,5-dihydro-1H-3-pyrazolyl]-2-methylphenol derivatives” (2006).
≈ marks a conversion by molar mass, not a printed value.

System: Mycobacterium tuberculosis
Assay: Antimycobacterial activity against isoniazid-resistant Mycobacterium tuberculosis H37Rv ATCC 27294 using alamar blue staining by broth microdilution assay
Format: functional

Compound	MIC [µg/mL]
Cc1cc(C2=NN(c3ccccc3)C(c3ccc(F)cc3)C2)ccc1O (configuration not stated)	0.62 (≈ 1.79 µM)
Cc1cc(C2=NN(c3ccccc3)C(c3ccccc3)C2)ccc1O (configuration not stated)	1.6 (≈ 4.87 µM)
COc1ccc(C2CC(c3ccc(O)c(C)c3)=NN2c2ccccc2)cc1 (configuration not stated)	1.45 (≈ 4.05 µM)
Cc1cc(C2=NN(c3ccccc3)C(c3cccc([N+](=O)[O-])c3)C2)ccc1O (configuration not stated)	1.96 (≈ 5.25 µM)
COc1cc(C2CC(c3ccc(O)c(C)c3)=NN2c2ccccc2)cc(OC)c1OC (configuration not stated)	1.86 (≈ 4.44 µM)
NNC(=O)c1ccncc1 [ISONIAZID]	0.63 (≈ 4.59 µM)
Cc1cc(C2=NN(c3ccccc3)C(c3ccccc3Cl)C2)ccc1O (configuration not stated)	1 (≈ 2.76 µM)
Cc1cc(C2=NN(c3ccccc3)C(c3ccc(Cl)cc3)C2)ccc1O (configuration not stated)	1.24 (≈ 3.42 µM)
Cc1cc(C2=NN(c3ccccc3)C(c3c(Cl)cccc3Cl)C2)ccc1O (configuration not stated)	0.92 (≈ 2.32 µM)
Cc1cc(C2=NN(c3ccccc3)C(c3ccco3)C2)ccc1O (configuration not stated)	0.81 (≈ 2.54 µM)
COc1ccc(C2CC(c3ccc(O)c(C)c3)=NN2c2ccccc2)cc1OC (configuration not stated)	1.16 (≈ 2.99 µM)
Cc1cc(C2=NN(c3ccccc3)C(c3ccc(N(C)C)cc3)C2)ccc1O (configuration not stated)	0.84 (≈ 2.26 µM)
